Experimental data from ChEMBL document CHEMBL5143676, “Piezo-Type Mechanosensitive Ion Channel Component 1 (Piezo1): A Promising Therapeutic Target and Its Modulators” (J Med Chem, 2022).
Bridge positions count the residues as written; N and C are the ends. Peptide text beside a SMILES is read from it.

Columns and labels:
[1] = biological target: T1, Piezo-type mechanosensitive ion channel component 1 (Mus musculus, UniProt E2JF22); test: Inhibition of mouse Piezo1
[2] = biological target: T1, Piezo-type mechanosensitive ion channel component 1; test: Agonist activity at mouse Piezo1 transfected in human HEK293T cells by FLIPR assay; format: cell-based
[3] = biological target: T2, Piezo-type mechanosensitive ion channel component 1 (Homo sapiens, UniProt Q92508); test: Agonist activity at human Piezo1 transfected in human HEK293T cells by FLIPR assay; format: cell-based
T2 sequence (Q92508 whole entry): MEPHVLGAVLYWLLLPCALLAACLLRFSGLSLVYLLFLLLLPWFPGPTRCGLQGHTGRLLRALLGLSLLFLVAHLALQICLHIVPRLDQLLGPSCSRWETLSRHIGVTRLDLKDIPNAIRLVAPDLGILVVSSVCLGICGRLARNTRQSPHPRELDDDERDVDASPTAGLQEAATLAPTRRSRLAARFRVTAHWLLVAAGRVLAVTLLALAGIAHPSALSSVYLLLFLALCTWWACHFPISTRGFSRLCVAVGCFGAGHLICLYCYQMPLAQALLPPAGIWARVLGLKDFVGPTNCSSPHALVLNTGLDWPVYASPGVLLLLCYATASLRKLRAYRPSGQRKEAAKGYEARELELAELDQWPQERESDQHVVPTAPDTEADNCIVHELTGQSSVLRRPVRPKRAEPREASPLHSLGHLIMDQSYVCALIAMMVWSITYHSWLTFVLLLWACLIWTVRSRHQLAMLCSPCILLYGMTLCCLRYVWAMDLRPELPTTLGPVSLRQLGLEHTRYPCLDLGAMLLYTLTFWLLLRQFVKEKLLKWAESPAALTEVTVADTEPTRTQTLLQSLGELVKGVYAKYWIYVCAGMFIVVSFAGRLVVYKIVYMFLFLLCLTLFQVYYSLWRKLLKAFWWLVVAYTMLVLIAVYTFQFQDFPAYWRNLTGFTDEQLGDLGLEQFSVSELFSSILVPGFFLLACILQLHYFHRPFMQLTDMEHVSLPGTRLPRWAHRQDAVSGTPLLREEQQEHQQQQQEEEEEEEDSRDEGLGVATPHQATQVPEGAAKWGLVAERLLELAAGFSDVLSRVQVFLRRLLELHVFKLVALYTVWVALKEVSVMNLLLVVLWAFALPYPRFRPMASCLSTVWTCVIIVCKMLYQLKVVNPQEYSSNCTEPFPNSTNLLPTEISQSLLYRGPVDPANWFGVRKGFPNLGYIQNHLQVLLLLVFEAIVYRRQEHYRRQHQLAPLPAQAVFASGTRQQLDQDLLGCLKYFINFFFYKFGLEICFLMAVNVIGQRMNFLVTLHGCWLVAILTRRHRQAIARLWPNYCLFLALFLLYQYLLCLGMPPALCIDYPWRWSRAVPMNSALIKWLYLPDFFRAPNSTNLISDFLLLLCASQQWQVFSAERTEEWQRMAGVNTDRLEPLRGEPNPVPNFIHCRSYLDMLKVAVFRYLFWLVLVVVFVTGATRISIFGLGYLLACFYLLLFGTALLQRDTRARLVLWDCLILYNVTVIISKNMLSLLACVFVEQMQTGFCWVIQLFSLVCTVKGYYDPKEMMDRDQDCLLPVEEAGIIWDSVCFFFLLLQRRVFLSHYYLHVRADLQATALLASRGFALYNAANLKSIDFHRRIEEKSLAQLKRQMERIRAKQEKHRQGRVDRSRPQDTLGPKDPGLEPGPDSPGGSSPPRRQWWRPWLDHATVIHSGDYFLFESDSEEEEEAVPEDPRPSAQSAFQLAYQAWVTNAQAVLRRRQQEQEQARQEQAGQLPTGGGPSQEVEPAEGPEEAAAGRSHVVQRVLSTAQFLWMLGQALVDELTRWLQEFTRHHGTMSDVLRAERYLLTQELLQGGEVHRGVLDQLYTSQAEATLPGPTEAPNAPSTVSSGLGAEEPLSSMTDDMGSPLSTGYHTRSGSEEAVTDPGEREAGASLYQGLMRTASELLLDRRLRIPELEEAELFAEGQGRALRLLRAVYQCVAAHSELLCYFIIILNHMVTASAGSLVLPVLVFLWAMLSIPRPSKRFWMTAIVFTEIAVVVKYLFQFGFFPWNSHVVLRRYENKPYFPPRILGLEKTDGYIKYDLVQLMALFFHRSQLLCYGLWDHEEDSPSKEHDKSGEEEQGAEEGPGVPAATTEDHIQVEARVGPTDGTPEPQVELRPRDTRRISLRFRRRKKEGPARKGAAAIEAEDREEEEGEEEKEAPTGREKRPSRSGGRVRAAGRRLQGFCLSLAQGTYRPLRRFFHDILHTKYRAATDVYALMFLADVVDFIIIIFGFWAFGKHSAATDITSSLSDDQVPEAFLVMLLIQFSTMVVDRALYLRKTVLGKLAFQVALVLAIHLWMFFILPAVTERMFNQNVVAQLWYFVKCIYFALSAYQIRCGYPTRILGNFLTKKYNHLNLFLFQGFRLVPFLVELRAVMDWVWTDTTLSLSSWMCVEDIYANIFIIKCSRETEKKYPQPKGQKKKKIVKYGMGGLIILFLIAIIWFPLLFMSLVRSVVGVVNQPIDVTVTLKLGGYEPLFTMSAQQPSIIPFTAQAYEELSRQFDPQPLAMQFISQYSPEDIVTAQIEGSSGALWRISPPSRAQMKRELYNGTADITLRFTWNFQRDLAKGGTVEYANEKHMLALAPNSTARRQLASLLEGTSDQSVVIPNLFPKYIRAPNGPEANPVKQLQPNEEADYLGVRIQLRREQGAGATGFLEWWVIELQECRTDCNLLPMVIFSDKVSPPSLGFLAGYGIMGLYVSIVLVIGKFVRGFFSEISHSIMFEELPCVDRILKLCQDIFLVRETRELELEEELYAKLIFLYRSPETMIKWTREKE

[4] = biological target: T2, Piezo-type mechanosensitive ion channel component 1; test: Binding affinity to Piezo1 (unknown origin) transfected in human HEK293 cells assessed as equilibrium constant at 40 mmHg/+50 mV; format: cell-based
[5] = biological target: T2, Piezo-type mechanosensitive ion channel component 1; test: Inhibition of Piezo1 (unknown origin) transfected in human HEK293 cells assessed as rightward shift in pressure-gating curve at 50 mV at 1 to 4 uM; format: cell-based; details: dose 1-4 µM
[6] = biological target: T1, Piezo-type mechanosensitive ion channel component 1; test: Binding affinity to mouse Piezo1 assessed as dissociation constant by SPR assay

T1 sequence (E2JF22 whole entry): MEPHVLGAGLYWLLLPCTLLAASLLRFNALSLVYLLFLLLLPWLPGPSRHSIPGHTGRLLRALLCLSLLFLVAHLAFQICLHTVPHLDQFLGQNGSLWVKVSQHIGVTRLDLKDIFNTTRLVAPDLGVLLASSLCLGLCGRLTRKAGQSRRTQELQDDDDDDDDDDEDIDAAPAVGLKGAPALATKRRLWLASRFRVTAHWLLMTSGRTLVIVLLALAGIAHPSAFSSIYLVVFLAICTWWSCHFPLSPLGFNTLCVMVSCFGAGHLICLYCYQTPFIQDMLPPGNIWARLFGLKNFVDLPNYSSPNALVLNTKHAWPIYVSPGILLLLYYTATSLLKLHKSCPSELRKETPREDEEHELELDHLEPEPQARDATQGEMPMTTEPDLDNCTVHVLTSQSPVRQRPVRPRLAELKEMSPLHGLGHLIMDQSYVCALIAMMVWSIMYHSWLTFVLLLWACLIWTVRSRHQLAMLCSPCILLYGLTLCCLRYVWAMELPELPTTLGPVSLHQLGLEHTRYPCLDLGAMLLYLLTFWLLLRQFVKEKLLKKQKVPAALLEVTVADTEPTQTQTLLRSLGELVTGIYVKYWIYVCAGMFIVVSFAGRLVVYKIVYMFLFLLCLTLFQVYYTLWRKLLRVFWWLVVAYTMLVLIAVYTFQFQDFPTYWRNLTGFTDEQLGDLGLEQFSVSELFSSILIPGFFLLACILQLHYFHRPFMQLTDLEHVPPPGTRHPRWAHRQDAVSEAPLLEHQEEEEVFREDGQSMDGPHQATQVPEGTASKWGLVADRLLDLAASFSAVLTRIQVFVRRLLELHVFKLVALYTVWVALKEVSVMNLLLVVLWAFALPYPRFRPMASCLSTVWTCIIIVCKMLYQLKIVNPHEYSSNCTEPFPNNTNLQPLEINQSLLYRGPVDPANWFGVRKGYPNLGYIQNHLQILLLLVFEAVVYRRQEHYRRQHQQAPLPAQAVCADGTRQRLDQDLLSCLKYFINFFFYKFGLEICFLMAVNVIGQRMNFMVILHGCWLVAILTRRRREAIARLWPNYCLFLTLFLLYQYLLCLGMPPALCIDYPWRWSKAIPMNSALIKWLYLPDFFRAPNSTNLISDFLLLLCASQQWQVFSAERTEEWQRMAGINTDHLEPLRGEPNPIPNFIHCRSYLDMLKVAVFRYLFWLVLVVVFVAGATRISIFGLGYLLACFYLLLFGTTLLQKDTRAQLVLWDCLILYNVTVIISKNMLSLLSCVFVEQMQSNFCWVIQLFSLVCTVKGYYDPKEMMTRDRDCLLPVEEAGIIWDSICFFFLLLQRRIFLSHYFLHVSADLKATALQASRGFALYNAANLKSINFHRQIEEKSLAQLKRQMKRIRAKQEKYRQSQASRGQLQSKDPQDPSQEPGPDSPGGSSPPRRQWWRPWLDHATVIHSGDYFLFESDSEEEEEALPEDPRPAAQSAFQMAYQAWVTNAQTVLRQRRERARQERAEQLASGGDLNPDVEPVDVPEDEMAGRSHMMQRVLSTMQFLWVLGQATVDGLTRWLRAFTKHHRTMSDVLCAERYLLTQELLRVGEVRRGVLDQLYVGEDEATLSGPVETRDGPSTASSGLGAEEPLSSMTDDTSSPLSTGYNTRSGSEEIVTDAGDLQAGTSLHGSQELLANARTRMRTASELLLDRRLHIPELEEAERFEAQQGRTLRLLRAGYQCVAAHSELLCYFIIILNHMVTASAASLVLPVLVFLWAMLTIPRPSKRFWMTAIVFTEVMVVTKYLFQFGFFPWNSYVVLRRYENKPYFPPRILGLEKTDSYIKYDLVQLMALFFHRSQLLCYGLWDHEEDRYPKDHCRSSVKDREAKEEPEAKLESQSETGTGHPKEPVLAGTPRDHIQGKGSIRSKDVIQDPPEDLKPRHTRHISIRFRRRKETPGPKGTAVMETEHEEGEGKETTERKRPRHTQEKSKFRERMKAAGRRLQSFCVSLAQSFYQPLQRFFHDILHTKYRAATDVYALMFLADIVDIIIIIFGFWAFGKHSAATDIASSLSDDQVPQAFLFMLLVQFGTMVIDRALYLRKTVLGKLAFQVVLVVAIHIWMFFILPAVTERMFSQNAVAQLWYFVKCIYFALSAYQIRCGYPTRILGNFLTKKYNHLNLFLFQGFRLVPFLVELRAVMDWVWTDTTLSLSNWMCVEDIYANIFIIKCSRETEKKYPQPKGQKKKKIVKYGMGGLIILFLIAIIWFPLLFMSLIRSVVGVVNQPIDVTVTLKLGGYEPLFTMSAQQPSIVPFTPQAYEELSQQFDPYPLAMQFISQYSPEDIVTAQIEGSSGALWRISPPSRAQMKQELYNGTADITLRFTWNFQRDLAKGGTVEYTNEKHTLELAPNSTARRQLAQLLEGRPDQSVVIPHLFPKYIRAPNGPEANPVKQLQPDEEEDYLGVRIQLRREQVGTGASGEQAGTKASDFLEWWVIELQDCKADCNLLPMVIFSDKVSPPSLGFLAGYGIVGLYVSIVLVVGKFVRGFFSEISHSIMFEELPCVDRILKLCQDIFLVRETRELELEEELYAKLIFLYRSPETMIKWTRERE

For `Cc1oc(-c2ccccc2)cc1C(=O)O`, the EC50 [1] was 200 µM.

In the case of `Clc1cccc(Cl)c1CSc1nnc(-c2cnccn2)s1`, the EC50 [2] is reported as 17.1 µM and the EC50 [3] is reported as 26.6 µM.

Work on `CC(C)C[C@@H]1NC(=O)[C@@H](NC(=O)CN)CSSC[C@@H]2NC(=O)[C@@H]3CSSC[C@@H](C(=O)N[C@@H](CC(N)=O)C(=O)N[C@@H](Cc4ccccc4)C(=O)N[C@@H](CO)C(=O)N[C@@H](Cc4ccccc4)C(N)=O)NC(=O)[C@H](CC(C)C)NC(=O)[C@H](CCCCN)NC(=O)[C@H](Cc4ccccc4)NC(=O)[C@H](CC(C)C)NC(=O)[C@H](CCCCN)NC(=O)[C@H](CO)NC(=O)[C@H](CSSC[C@H](NC(=O)[C@H](CCCCN)NC(=O)[C@H](Cc4c[nH]c5ccccc45)NC(=O)[C@H](Cc4c[nH]c5ccccc45)NC(=O)[C@H](Cc4ccccc4)NC(=O)[C@H](CCC(=O)O)NC1=O)C(=O)N[C@@H](CC(N)=O)C(=O)N1CCC[C@H]1C(=O)N[C@@H](CC(N)=O)C(=O)N[C@@H](CC(=O)O)C(=O)N[C@@H](CC(=O)O)C(=O)N[C@@H](CCCCN)C(=O)N3)NC(=O)[C@H](CCCCN)NC(=O)[C@H](CC(C)C)NC(=O)[C@H](CCCCN)NC(=O)[C@@H]1CCCN1C(=O)[C@H](CCCNC(=N)N)NC2=O` (H-GCLEFWWKCNPNDDKCCRPKLKCSKLFKLCNFSF-NH2; disulfide 2-17, 9-23, 16-30) yielded a Ke [4] of 155 nM and an Activity [5] of 30 mmHg.

Molecule `Cc1oc(-c2cccs2)cc1C(=O)O` has a Kd [6] of 2240 µM.
